Results as given in patent publication US11065232B2, “Dihydrotetrabenazine for the treatment of anxiety and psychoses” (ADEPTIO PHARMACEUTICALS LIMITED, priority 2017, dated 2021).

Assays:
[1] = system: I2 (antagonist radioligand); assay: Receptor protein binding studies, I2
Excerpt: (§1) The four 3,11b trans-dihydrotetrabenazine isomers (+)-α, (−)-α, (+)-β and (−)-β were subjected to specific binding assays to test their ability to bind to the receptors and transporter proteins described below. The results are set out in Table 1

[2] = molecular target: D3 (h) (antagonist radioligand) (Homo sapiens, UniProt P35462); assay: Receptor protein binding studies, D3
D3 (h) (antagonist radioligand), sequence (P35462 whole entry): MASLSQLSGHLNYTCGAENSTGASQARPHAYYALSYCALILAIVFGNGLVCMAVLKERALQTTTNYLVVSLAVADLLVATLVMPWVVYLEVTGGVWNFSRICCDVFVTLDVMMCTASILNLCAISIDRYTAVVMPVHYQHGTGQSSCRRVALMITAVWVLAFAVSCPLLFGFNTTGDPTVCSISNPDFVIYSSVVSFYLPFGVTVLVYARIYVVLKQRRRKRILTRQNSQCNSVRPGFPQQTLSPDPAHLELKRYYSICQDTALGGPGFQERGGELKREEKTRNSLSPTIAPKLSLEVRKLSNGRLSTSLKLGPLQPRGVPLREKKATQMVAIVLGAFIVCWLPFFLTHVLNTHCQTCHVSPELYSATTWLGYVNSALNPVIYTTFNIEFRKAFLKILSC
Excerpt: as §1

[3] = molecular target: D1 (h) (antagonist radioligand) (Homo sapiens, UniProt P21728); assay: Receptor protein binding studies, D1
D1 (h) (antagonist radioligand), sequence (P21728 whole entry): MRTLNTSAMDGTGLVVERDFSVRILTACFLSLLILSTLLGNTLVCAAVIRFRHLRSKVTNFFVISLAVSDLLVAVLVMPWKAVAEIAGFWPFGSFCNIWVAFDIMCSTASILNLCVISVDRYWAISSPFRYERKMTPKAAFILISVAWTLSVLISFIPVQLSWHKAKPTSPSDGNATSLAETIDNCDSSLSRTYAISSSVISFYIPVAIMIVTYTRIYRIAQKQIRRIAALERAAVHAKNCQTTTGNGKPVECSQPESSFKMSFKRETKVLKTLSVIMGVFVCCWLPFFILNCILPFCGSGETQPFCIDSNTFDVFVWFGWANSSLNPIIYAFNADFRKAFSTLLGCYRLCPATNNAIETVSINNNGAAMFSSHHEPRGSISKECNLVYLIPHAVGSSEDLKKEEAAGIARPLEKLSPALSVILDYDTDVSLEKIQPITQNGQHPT
Excerpt: as §1

5-HT5A(h) = 5-HT5A(h) (Homo sapiens, UniProt P47898); assay: Receptor protein binding studies, 5-HT5A
5-HT5A(h), sequence (P47898 whole entry): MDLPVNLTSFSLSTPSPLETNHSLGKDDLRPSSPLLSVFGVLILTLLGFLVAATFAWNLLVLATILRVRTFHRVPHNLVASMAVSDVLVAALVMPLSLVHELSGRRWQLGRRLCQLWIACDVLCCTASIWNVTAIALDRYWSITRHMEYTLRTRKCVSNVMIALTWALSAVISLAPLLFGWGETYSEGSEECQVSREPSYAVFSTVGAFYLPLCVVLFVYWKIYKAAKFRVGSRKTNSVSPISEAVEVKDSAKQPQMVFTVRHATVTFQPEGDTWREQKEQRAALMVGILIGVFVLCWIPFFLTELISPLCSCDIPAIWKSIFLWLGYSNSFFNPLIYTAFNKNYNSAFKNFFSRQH
Excerpt: as §1

[4] = molecular target: 5-HT2B (h) (agonist radioligand) (Homo sapiens, UniProt P41595); assay: Receptor protein binding studies, 5-HT2B
5-HT2B (h) (agonist radioligand), sequence (P41595 whole entry): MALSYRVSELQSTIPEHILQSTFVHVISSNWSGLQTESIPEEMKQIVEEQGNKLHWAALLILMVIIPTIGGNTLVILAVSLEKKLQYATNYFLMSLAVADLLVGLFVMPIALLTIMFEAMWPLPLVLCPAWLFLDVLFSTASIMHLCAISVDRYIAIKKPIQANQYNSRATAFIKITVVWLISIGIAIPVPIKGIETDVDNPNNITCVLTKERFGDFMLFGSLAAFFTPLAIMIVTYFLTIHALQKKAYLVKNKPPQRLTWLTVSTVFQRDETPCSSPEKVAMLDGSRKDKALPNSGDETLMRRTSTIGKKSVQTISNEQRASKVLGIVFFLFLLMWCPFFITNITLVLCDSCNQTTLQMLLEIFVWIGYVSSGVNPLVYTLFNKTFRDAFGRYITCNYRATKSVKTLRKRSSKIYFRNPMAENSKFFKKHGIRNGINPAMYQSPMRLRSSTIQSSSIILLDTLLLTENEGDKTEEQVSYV
Excerpt: as §1

[5] = molecular target: T1, alpha 2A (h) (antagonist radioligand) (Homo sapiens, UniProt P08913); assay: Receptor protein binding studies, alpha 2A
T1 sequence (P08913 1-465): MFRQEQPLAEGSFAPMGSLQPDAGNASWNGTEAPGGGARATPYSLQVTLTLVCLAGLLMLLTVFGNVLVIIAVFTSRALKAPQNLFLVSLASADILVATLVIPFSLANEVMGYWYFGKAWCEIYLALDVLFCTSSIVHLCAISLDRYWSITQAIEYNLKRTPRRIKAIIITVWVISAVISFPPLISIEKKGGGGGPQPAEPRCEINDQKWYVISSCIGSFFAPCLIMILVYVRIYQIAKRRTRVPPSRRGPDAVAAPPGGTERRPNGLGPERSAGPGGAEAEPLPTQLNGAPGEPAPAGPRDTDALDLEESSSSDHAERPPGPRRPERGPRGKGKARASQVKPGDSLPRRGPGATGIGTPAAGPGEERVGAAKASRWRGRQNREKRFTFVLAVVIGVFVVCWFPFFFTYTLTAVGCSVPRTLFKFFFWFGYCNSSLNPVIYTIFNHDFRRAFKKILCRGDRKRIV
Excerpt: as §1

[6] = molecular target: Sigma 1 (h) (agonist radioligand) (Homo sapiens, UniProt Q99720); assay: Receptor protein binding studies, Sigma 1
Sigma 1 (h) (agonist radioligand), sequence (Q99720 whole entry): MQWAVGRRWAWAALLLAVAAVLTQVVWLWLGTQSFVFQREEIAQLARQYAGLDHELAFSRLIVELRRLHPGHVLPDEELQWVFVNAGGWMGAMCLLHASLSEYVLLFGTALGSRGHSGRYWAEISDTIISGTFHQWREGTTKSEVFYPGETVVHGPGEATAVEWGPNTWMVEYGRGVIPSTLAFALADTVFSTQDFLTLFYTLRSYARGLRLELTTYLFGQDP
Excerpt: as §1

Dopamine D2L = Dopamine D2L (Homo sapiens, UniProt P14416); assay: Receptor protein binding studies, Dopamine D2L
Dopamine D2L, sequence (P14416 whole entry): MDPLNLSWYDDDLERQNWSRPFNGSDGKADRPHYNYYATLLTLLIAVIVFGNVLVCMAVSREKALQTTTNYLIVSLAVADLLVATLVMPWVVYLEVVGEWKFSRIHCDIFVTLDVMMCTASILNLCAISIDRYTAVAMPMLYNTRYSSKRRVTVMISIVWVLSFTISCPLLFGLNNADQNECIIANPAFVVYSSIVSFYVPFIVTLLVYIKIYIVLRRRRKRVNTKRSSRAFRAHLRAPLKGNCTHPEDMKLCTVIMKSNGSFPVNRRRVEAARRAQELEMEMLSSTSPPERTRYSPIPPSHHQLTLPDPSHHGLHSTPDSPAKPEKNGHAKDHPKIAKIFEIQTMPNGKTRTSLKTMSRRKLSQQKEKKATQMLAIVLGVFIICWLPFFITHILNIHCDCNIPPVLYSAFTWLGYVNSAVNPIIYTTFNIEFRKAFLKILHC
Excerpt: as §1

[7] = molecular target: T2, 5-HT1A(h) (agonist radioligand) (Homo sapiens, UniProt P08908); assay: Receptor protein binding studies, 5-HT1A
T2 sequence (P08908 1-422): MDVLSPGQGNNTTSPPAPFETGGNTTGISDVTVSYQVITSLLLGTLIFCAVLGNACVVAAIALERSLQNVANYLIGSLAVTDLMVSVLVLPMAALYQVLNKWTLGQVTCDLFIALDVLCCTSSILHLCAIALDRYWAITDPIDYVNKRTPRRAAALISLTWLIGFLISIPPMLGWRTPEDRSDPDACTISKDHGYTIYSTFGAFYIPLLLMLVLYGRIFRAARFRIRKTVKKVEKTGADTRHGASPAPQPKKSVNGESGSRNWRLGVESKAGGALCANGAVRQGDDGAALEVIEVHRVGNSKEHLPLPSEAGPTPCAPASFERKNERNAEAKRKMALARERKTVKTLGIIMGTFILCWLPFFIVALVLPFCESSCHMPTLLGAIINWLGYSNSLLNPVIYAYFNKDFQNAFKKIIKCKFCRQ
Excerpt: as §1

[8] = molecular target: hERG (membrane preparation) (antagonist radioligand) (Homo sapiens, UniProt Q12809); assay: Receptor protein binding studies, hERG
hERG (membrane preparation) (antagonist radioligand), sequence (Q12809 whole entry): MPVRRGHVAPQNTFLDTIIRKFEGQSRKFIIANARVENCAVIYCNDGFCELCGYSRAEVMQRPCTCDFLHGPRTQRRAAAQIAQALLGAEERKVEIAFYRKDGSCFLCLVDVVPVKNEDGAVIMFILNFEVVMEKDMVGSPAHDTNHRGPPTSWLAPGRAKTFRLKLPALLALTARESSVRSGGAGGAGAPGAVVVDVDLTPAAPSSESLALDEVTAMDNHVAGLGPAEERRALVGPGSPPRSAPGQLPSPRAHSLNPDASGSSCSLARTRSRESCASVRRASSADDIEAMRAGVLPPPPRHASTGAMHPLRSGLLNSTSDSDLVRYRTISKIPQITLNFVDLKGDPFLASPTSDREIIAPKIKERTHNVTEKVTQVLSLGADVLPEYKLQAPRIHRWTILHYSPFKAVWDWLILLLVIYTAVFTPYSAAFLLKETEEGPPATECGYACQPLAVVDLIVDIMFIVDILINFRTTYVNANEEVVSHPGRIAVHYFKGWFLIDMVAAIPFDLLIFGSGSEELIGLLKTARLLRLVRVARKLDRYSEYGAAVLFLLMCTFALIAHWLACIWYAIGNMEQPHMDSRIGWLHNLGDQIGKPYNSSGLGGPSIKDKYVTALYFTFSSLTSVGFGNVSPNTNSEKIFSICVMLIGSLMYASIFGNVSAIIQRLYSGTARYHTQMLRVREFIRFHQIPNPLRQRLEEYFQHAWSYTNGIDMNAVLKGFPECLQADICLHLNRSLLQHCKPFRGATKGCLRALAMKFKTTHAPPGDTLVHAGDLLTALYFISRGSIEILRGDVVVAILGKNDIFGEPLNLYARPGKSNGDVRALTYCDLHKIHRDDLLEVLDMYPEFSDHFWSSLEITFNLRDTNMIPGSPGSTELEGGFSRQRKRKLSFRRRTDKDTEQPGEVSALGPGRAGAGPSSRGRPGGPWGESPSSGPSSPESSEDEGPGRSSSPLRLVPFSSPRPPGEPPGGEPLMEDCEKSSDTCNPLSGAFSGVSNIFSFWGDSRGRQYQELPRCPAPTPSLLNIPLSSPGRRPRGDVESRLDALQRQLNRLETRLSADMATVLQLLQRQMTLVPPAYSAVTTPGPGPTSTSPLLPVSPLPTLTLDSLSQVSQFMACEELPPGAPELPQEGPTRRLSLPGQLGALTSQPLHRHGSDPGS
Excerpt: as §1

[9] = molecular target: 5-HT4e (h) (antagonist radioligand) (Homo sapiens, UniProt Q13639); assay: Receptor protein binding studies, 5-HT4e
5-HT4e (h) (antagonist radioligand), sequence (Q13639 1-378 isoform Q13639-5): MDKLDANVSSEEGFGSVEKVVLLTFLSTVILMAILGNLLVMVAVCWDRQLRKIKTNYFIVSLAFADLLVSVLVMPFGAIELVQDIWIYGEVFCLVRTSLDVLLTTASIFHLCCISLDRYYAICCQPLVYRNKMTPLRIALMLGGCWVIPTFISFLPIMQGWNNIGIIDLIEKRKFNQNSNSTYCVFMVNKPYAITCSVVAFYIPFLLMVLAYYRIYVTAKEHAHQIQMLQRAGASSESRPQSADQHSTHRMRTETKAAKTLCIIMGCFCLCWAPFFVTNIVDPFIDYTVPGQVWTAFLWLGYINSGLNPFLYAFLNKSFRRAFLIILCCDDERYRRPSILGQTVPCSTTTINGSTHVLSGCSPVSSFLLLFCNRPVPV
Excerpt: as §1

[10] = molecular target: T3, alpha 1B (h) (antagonist radioligand) (Homo sapiens, UniProt P35368); assay: Receptor protein binding studies, alpha 1B
T3 sequence (P35368 1-520): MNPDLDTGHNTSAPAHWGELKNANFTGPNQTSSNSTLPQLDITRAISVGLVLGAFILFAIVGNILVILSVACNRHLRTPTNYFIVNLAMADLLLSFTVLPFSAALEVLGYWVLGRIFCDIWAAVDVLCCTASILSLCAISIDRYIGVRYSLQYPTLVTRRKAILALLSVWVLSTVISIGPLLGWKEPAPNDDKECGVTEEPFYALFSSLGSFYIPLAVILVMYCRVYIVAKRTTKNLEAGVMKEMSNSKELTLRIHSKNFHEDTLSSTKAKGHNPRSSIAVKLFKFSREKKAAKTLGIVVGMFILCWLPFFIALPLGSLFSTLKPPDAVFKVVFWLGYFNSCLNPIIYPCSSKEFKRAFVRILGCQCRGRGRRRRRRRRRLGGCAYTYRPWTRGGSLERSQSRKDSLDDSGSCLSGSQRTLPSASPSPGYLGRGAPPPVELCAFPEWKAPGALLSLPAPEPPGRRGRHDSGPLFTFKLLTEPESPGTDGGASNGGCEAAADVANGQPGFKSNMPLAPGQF
Excerpt: as §1

[11] = molecular target: Sigma 2 (h) (agonist radioligand) (Homo sapiens, UniProt Q5BJF2); assay: Receptor protein binding studies, Sigma 2
Sigma 2 (h) (agonist radioligand), sequence (Q5BJF2 whole entry): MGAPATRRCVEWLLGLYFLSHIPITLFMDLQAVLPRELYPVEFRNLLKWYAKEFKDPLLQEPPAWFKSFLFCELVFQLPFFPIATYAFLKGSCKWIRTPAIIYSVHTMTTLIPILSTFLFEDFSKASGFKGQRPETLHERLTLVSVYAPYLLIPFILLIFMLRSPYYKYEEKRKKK
Excerpt: as §1

[12] = molecular target: D5 (h) (antagonist radioligand) (Homo sapiens, UniProt P21918); assay: Receptor protein binding studies, D5
D5 (h) (antagonist radioligand), sequence (P21918 whole entry): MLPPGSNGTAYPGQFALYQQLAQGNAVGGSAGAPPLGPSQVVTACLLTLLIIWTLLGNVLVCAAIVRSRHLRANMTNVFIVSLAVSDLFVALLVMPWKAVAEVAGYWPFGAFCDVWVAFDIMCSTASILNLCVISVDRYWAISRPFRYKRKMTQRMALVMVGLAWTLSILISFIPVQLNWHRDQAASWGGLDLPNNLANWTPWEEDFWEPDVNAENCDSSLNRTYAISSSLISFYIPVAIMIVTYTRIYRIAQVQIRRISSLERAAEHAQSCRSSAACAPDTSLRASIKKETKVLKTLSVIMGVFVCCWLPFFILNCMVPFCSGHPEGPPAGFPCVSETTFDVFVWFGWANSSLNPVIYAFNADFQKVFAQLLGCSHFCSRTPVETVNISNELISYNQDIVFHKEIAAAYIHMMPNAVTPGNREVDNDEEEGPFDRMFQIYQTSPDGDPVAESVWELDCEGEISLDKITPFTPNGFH
Excerpt: as §1

Substance: (+)-α-dihydrotetrabenazine [(+)-Alpha]
- % Inhibition of specific binding ([1]; CONC 1.0E−05 (unit not given)): 20%
- % Inhibition of specific binding ([1]; CONC 1.0E−06 (unit not given)): 1%
- % Inhibition of specific binding ([2]; CONC 1.0E−05 (unit not given)): 2%
- % Inhibition of specific binding ([2]; CONC 1.0E−06 (unit not given)): −14%
- % Inhibition of specific binding ([3]; CONC 1.0E−05 (unit not given)): −2%
- % Inhibition of specific binding ([3]; CONC 1.0E−06 (unit not given)): 0%
- % Inhibition of specific binding (5-HT5A(h); CONC 1.0E−05 (unit not given)): −2%
- % Inhibition of specific binding (5-HT5A(h); CONC 1.0E−06 (unit not given)): −26%
- % Inhibition of specific binding ([4]; CONC 1.0E−05 (unit not given)): 0%
- % Inhibition of specific binding ([4]; CONC 1.0E−06 (unit not given)): −4%
- % Inhibition of specific binding ([5]; CONC 1.0E−05 (unit not given)): 7%
- % Inhibition of specific binding ([5]; CONC 1.0E−06 (unit not given)): 5%
- % Inhibition of specific binding ([6]; CONC 1.0E−05 (unit not given)): 96%
- % Inhibition of specific binding ([6]; CONC 1.0E−06 (unit not given)): 64%
- % Inhibition of specific binding (Dopamine D2L; CONC 1.0E−05 (unit not given)): 14%
- % Inhibition of specific binding (Dopamine D2L; CONC 1.0E−06 (unit not given)): 10%
- % Inhibition of specific binding ([7]; CONC 1.0E−05 (unit not given)): 83%
- % Inhibition of specific binding ([7]; CONC 1.0E−06 (unit not given)): 38%
- % Inhibition of specific binding ([8]; CONC 1.0E−05 (unit not given)): 33%
- % Inhibition of specific binding ([8]; CONC 1.0E−06 (unit not given)): 2%
- % Inhibition of specific binding ([9]; CONC 1.0E−05 (unit not given)): 40%
- % Inhibition of specific binding ([9]; CONC 1.0E−06 (unit not given)): 2%
- % Inhibition of specific binding ([10]; CONC 1.0E−05 (unit not given)): 23%
- % Inhibition of specific binding ([10]; CONC 1.0E−06 (unit not given)): −4%
- % Inhibition of specific binding ([11]; CONC 1.0E−05 (unit not given)): 70%
- % Inhibition of specific binding ([11]; CONC 1.0E−06 (unit not given)): 34%
- % Inhibition of specific binding ([12]; CONC 1.0E−05 (unit not given)): −8%
- % Inhibition of specific binding ([12]; CONC 1.0E−06 (unit not given)): −7%

Substance: (+)-β-dihydrotetrabenazine [(+)-Beta]
- % Inhibition of specific binding ([1]; CONC 1.0E−05 (unit not given)): 11%
- % Inhibition of specific binding ([1]; CONC 1.0E−06 (unit not given)): 6%
- % Inhibition of specific binding ([2]; CONC 1.0E−05 (unit not given)): 12%
- % Inhibition of specific binding ([2]; CONC 1.0E−06 (unit not given)): −18%
- % Inhibition of specific binding ([3]; CONC 1.0E−05 (unit not given)): 8%
- % Inhibition of specific binding ([3]; CONC 1.0E−06 (unit not given)): 0%
- % Inhibition of specific binding (5-HT5A(h); CONC 1.0E−05 (unit not given)): −13%
- % Inhibition of specific binding (5-HT5A(h); CONC 1.0E−06 (unit not given)): −23%
- % Inhibition of specific binding ([4]; CONC 1.0E−05 (unit not given)): −7%
- % Inhibition of specific binding ([4]; CONC 1.0E−06 (unit not given)): −2%
- % Inhibition of specific binding ([5]; CONC 1.0E−05 (unit not given)): 11%
- % Inhibition of specific binding ([5]; CONC 1.0E−06 (unit not given)): −1%
- % Inhibition of specific binding ([6]; CONC 1.0E−05 (unit not given)): 99%
- % Inhibition of specific binding ([6]; CONC 1.0E−06 (unit not given)): 92%
- % Inhibition of specific binding (Dopamine D2L; CONC 1.0E−05 (unit not given)): 18%
- % Inhibition of specific binding (Dopamine D2L; CONC 1.0E−06 (unit not given)): 1%
- % Inhibition of specific binding ([7]; CONC 1.0E−05 (unit not given)): 64%
- % Inhibition of specific binding ([7]; CONC 1.0E−06 (unit not given)): 20%
- % Inhibition of specific binding ([8]; CONC 1.0E−05 (unit not given)): 8%
- % Inhibition of specific binding ([8]; CONC 1.0E−06 (unit not given)): 3%
- % Inhibition of specific binding ([9]; CONC 1.0E−05 (unit not given)): 19%
- % Inhibition of specific binding ([9]; CONC 1.0E−06 (unit not given)): −4%
- % Inhibition of specific binding ([10]; CONC 1.0E−05 (unit not given)): 1%
- % Inhibition of specific binding ([10]; CONC 1.0E−06 (unit not given)): 3%
- % Inhibition of specific binding ([11]; CONC 1.0E−05 (unit not given)): 85%
- % Inhibition of specific binding ([11]; CONC 1.0E−06 (unit not given)): 41%
- % Inhibition of specific binding ([12]; CONC 1.0E−05 (unit not given)): −5%
- % Inhibition of specific binding ([12]; CONC 1.0E−06 (unit not given)): −8%

Substance: (−)-α-dihydrotetrabenazine [(−)-Alpha]
- % Inhibition of specific binding ([1]; CONC 1.0E−05 (unit not given)): 12%
- % Inhibition of specific binding ([1]; CONC 1.0E−06 (unit not given)): 13%
- % Inhibition of specific binding ([2]; CONC 1.0E−05 (unit not given)): 79%
- % Inhibition of specific binding ([2]; CONC 1.0E−06 (unit not given)): 26%
- % Inhibition of specific binding ([3]; CONC 1.0E−05 (unit not given)): 45%
- % Inhibition of specific binding ([3]; CONC 1.0E−06 (unit not given)): 5%
- % Inhibition of specific binding (5-HT5A(h); CONC 1.0E−05 (unit not given)): −6%
- % Inhibition of specific binding (5-HT5A(h); CONC 1.0E−06 (unit not given)): −24%
- % Inhibition of specific binding ([4]; CONC 1.0E−05 (unit not given)): 92%
- % Inhibition of specific binding ([4]; CONC 1.0E−06 (unit not given)): 55%
- % Inhibition of specific binding ([5]; CONC 1.0E−05 (unit not given)): 65%
- % Inhibition of specific binding ([5]; CONC 1.0E−06 (unit not given)): 30%
- % Inhibition of specific binding ([6]; CONC 1.0E−05 (unit not given)): 78%
- % Inhibition of specific binding ([6]; CONC 1.0E−06 (unit not given)): 40%
- % Inhibition of specific binding (Dopamine D2L; CONC 1.0E−05 (unit not given)): 68%
- % Inhibition of specific binding (Dopamine D2L; CONC 1.0E−06 (unit not given)): 27%
- % Inhibition of specific binding ([7]; CONC 1.0E−05 (unit not given)): 96%
- % Inhibition of specific binding ([7]; CONC 1.0E−06 (unit not given)): 80%
- % Inhibition of specific binding ([8]; CONC 1.0E−05 (unit not given)): 19%
- % Inhibition of specific binding ([8]; CONC 1.0E−06 (unit not given)): 5%
- % Inhibition of specific binding ([9]; CONC 1.0E−05 (unit not given)): 26%
- % Inhibition of specific binding ([9]; CONC 1.0E−06 (unit not given)): 4%
- % Inhibition of specific binding ([10]; CONC 1.0E−05 (unit not given)): 14%
- % Inhibition of specific binding ([10]; CONC 1.0E−06 (unit not given)): 9%
- % Inhibition of specific binding ([11]; CONC 1.0E−05 (unit not given)): 85%
- % Inhibition of specific binding ([11]; CONC 1.0E−06 (unit not given)): 52%
- % Inhibition of specific binding ([12]; CONC 1.0E−05 (unit not given)): 23%
- % Inhibition of specific binding ([12]; CONC 1.0E−06 (unit not given)): −3%
